Test results: patent US20260224571A1, “AZACYCLOALKANE COMPOUND AND PHARMACEUTICAL COMPOSITION, AND USE THEREOF” (Prime Gene Therapeutics Co., Ltd., priority 2023, published 2026)
Counter-ions that a name gives are not always drawn.

Assays:
ROCK2 = ROCK2 (Homo sapiens, UniProt O75116); assay: ROCK2 kinase enzymatic activity (HTRF, STK2 substrate); format: biochemical; conditions: ROCK2 kinase reacted at room temperature for 30 minutes
Source text: (§1) The kinase activity data was expressed by comparing the kinase activity of the test compound and that of the blank group (containing only DMSO), and the IC50 value was obtained by curve fitting using Prism software (GraphPad7.0).

[1] = system: phosphorylation of myosin light chain T18/S19; assay: In Cell Western for phosphorylation of myosin light chain in A7r5 cells; format: cell-based; conditions: rat smooth muscle cell line A7r5, 1 hour with compound, phospho-MLC-T18/S19; read-out: cellular activity IC50
Source text: The rat smooth muscle cell line A7r5 was used, and the A7r5 cell culture conditions were DMEM containing 10% FBS. Phspho-MLC-T18/S19 specific antibody and a second detection antibody were used to detect the phosphorylation level of myosin light chain by In Cell Western. Cells treated with positive compounds were used as positive controls, while the group without compounds but with compound solvents was used as negative controls. DRAQ5 stained cell nuclei were used as internal references. GraphPad Prism 7.0 software was used, and fitting was carried out by using a non-linear regression curve with varying slopes to determine the absolute IC50 value.
On the first day, A7r5 cells were resuspended in serum-free medium and seeded into 384 wells of PDL coated transparent black plates at a density of 5000 cells per well. Serum starvation culture was performed for 4 hours, and the cells were incubated with the compound in serum-free medium for 1 hour. 50 μL of 8% PFA (polyformaldehyde) was added to each well and fixed at room temperature for 1 hour. The liquid in the wells was discard and 90 μL of ice methanol was added to each well to permeabilize the cells at 4° C. for 1 hour. Then, PBST (0.1% Tween20-PBS) was added using an automatic separator to wash three times. After patting the plate for drying, 50 μL blocking solution was added to each well for sealing at room temperature for 1 hour. The phspho-MLC-T18/S19 specific antibody was diluted with the blocking solution at a ratio of 1:200. After adding 20 μL to each well, incubation was carried out overnight at 4° C. with a sealed film.
On the second day, the liquid in the wells was discarded and PBST was added using an automatic separator to wash the plate 5 times. After patting the plate for drying, the second detection antibody was diluted with blocking solution at a ratio of 1:800 and DRAQ5 at a ratio of 1:1000. After adding 20 μL to each well, incubation was carried out at room temperature for 1 hour. Then, the liquid in the wells was discarded and PBST was added using an automatic separator to wash the plate 3 times, followed by adding ddH2O to wash the plate 3 times. After patting the plate for drying, it was scanned using a LICOR Odyssey near-infrared imaging scanner.

ROCK1 = ROCK1 (Homo sapiens, UniProt Q13464); assay: ROCK1 kinase enzymatic activity (HTRF, STK2 substrate); format: biochemical; conditions: ROCK1 kinase reacted at room temperature for 20 minutes
Chain of ROCK1 (Q13464 whole entry): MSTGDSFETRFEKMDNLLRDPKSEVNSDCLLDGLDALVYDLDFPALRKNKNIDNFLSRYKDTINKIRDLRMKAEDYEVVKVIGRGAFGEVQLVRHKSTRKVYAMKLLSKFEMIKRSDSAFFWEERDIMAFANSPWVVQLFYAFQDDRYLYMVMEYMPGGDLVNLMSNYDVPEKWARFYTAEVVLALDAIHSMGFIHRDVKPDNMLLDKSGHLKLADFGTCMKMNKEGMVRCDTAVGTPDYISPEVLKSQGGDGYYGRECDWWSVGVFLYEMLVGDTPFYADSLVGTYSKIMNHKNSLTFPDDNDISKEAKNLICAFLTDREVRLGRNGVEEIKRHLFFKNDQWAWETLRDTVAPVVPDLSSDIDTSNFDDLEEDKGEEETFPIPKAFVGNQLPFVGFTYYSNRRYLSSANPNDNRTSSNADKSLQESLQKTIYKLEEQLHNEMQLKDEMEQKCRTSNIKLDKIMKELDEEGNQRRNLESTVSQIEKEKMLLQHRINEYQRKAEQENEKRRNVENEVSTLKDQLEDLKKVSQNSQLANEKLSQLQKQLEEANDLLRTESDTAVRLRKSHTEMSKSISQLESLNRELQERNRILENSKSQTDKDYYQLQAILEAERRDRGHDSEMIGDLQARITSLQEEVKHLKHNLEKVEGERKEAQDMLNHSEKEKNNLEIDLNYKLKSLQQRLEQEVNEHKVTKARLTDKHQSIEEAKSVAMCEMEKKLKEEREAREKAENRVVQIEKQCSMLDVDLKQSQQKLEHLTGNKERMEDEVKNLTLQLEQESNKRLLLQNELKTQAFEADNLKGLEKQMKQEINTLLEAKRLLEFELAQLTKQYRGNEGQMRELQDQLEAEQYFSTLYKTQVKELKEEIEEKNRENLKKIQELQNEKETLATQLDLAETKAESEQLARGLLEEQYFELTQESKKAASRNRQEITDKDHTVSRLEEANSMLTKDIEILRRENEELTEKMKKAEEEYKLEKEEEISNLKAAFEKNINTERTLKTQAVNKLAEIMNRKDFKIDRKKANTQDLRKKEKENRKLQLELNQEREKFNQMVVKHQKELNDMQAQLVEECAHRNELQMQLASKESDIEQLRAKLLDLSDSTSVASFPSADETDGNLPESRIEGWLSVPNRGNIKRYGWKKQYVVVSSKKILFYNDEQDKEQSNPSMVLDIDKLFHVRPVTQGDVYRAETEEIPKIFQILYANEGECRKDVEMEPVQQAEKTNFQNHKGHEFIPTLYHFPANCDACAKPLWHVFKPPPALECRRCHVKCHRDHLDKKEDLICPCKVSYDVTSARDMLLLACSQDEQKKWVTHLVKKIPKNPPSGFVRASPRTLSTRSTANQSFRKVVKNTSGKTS
Source text: as §1

Chain of ROCK2 (O75116 whole entry): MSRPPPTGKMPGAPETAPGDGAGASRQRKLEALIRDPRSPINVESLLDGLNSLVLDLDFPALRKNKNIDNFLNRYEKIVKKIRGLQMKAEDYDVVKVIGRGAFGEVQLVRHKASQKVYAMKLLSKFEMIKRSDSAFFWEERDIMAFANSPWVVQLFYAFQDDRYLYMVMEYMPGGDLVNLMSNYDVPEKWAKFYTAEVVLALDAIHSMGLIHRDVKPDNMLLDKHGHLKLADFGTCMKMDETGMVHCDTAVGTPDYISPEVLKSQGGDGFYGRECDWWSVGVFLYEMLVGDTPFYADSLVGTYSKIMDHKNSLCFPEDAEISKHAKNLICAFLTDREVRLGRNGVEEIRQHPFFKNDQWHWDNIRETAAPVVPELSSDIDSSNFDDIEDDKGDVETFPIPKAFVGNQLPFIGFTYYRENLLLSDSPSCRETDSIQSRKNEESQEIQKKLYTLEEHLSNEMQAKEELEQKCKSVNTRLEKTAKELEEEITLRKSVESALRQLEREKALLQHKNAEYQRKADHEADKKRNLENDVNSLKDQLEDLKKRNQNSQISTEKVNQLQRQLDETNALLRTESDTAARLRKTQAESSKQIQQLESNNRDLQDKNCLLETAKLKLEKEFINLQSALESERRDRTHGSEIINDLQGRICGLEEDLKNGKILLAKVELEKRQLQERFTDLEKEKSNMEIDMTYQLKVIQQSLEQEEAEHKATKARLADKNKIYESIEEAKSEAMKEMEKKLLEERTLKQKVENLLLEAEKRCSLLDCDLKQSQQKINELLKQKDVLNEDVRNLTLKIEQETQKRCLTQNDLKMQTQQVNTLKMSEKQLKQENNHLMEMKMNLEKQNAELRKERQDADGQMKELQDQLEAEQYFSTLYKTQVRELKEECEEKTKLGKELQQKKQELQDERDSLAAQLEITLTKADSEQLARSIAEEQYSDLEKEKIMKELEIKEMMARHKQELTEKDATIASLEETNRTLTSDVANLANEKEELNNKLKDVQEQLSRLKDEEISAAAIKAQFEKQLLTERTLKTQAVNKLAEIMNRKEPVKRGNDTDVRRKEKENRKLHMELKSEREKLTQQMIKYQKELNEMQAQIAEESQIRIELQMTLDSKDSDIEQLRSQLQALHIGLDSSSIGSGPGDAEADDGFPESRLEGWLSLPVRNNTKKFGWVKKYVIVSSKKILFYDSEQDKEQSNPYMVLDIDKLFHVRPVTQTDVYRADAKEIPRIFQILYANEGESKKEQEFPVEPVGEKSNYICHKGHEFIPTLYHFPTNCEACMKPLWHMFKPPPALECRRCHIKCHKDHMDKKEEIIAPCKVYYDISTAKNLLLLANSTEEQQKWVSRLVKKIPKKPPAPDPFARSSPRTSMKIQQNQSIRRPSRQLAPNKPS

Compound	IC50 (ROCK2) [nM]	IC50 [1] [nM]	IC50 (ROCK1) [nM]
CCNS(=O)(=O)N1CC(CC#N)(n2cc(-c3ncnc4[nH]ccc34)c(N)n2)C1 [Example 41, 3-(3-amino-4-(7H-pyrrolo[2,3-d]pyrimidin-4-yl)-1H-pyrazol-1-yl)-3-(cyanomethyl)-N-ethylazetidine-1-sulfonamide]	< 10	91	< 10
N#CCC1(n2cc(-c3ncnc4[nH]ccc34)c(N)n2)CN(S(N)(=O)=O)C1 [Example 45, 3-(3-amino-4-(7H-pyrrolo[2,3-d]pyrimidin-4-yl)-1H-pyrazol-1-yl)-3-(cyanomethyl)azetidine-1-sulfonamide]	< 5	579	< 5
N#CCNS(=O)(=O)N1CC(CC#N)(n2cc(-c3ncnc4[nH]ccc34)c(N)n2)C1 [Example 50, 3-(3-amino-4-(7H-pyrrolo[2,3-d]pyrimidin-4-yl)-1H-pyrazol-1-yl)-N,3-bis(cyanomethyl)azetidine-1-sulfonamide]	< 10	98	< 10
N#CCC1(n2cc(-c3ncnc4[nH]ccc34)c(O)n2)CN(C(=O)NCC(F)(F)F)C1 [Example 55, 3-(cyanomethyl)-3-(3-hydroxyl-4-(7H-pyrrolo[2,3-d]pyrimidin-4-yl)-1H-pyrazol-1-yl)-N-(2,2,2-trifluoroethyl)azetidine-1-formamide]	> 100	> 10000	< 50
N#CCC1(n2cc(-c3ncnc4[nH]ccc34)c(C(N)=O)n2)CN(C(=O)NCC(F)(F)F)C1 [Example 61, 1-(3-(cyanomethyl)-1-((2,2,2-trifluoroethyl)carbamoyl)azetidine-3-yl)-4-(7H-pyrrolo[2,3-d]pyrimidin-4-yl)-1H-pyrazol-3-formamide]	> 100	> 10000	> 100
CNC(=O)c1nn(C2(CC#N)CN(S(=O)(=O)CC(F)(F)F)C2)cc1-c1ncnc2[nH]ccc12 [Example 62, 1-(3-(cyanomethyl)-1-((2,2,2-trifluoroethyl)sulfonyl)azetidine-3-yl)-N-methyl-4-(7H-pyrrolo[2,3-d]pyrimidin-4-yl)-1H-pyrazol-3-formamide]	> 100	> 10000	> 100
Cn1cc(Nc2cc(-c3cn(C4(CC#N)CN(S(C)(=O)=O)C4)nc3N)ncn2)cn1 [Example 69]	> 100	> 10000	> 100
CCS(=O)(=O)N1CC(CC#N)(n2cc(-c3cc(-c4cnn(C)c4)nc4ccnn34)c(N)n2)C1 [Example 82]	> 100	> 10000	> 100
C[C@H](N)CS(=O)(=O)N1CC(CC#N)(n2cc(-c3ncnc4[nH]ccc34)c(N)n2)C1 [Example 87, (S)-2-(3-(3-amino-4-(7H-pyrrolo[2,3-d]pyrimidin-4-yl)-1H-pyrazol-1-yl)-1-((2-aminopropyl)sulfonyl)azetidine-3-yl)acetonitrile trifluoroacetate salt]	< 5	678	< 5
C[C@@H](N)CS(=O)(=O)N1CC(CC#N)(n2cc(-c3ncnc4[nH]ccc34)c(N)n2)C1 [Example 88, (R)-2-(3-(3-amino-4-(7H-pyrrolo[2,3-d]pyrimidin-4-yl)-1H-pyrazol-1-yl)-1-((2-aminopropyl)sulfonyl)azetidine-3-yl)acetonitrile trifluoroacetate salt]	< 5	826	< 5
